{
  "source": "patent US7604671B2",
  "about": "“Perfumery for improved cold throw and burn in candle systems” (Givaudan Fragrances Corporation, priority 2004, dated 2009)",
  "origin": "cited, not measured here",
  "conditions": "Randebrock 1986",
  "data": [
    {"smiles": "CCCCCCCCCCC=O", "note": "[1-undecanal]", "values": [
      {"measurement": "experimental value for odor detection threshold in air", "value": 0.00054, "unit": "mg/m^3"}
    ]}
  ]
}
